Test results published in article PMC6746850, “Identification and Molecular Characterization of Superoxide Dismutases Isolated From A Scuticociliate Parasite: Physiological Role in Oxidative Stress” (Scientific Reports, 2019).

What was measured:
Pd-Fe-SOD (FSD) = target: T1, Pd-Fe-SOD (FSD) (Philasterides dicentrarchi, UniProt A0A481XSU7); assay: SOD activity staining (NBT) in native PAGE; format: biochemical; details: 100 μM inhibitor; anion-exchange fraction P2 (methods also describe 30 min treatment of live ciliates before lysis)
T1 construct: native enzyme, 60-65 kDa activity band in anion-exchange fraction P2 on native PAGE; homodimer
T1 sequence (A0A481XSU7 22-249): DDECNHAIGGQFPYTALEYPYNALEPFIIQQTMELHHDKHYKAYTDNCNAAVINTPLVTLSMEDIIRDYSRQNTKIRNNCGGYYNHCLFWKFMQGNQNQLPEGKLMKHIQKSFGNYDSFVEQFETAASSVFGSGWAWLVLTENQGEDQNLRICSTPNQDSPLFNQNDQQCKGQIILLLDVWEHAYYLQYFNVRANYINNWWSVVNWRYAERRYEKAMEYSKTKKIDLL

Pd-Mn-SOD (MSD) = target: T2, Pd-Mn-SOD (MSD) (Philasterides dicentrarchi, UniProt A0A410JA19); assay: SOD activity staining (NBT) in native PAGE; format: biochemical; details: 100 μM inhibitor; anion-exchange fraction P2 (methods also describe 30 min treatment of live ciliates before lysis)
T2 construct: native enzyme, about 50 kDa activity band in anion-exchange fraction P2 on native PAGE; homodimer
T2 sequence (A0A410JA19 13-220): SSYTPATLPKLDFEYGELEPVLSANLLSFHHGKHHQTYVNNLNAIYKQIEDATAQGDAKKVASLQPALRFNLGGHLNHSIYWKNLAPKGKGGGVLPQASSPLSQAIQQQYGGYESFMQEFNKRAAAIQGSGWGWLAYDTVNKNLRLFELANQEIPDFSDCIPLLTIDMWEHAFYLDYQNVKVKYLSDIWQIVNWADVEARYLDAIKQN

## Oc1ccc(/C=C/c2cc(O)cc(O)c2)cc1 [trans-resveratrol]
Pd-Fe-SOD (FSD)
  complete inhibition at 100 μM: completely inhibited the activity of the Pd-Fe-SOD isoenzyme
Pd-Mn-SOD (MSD)
  partial inhibition at 100 μM: RESV partly inhibited the activity of the Pd-Mn-SOD isoenzyme
